Source: US12139481B2, “Compositions comprising macrocycle derivatives incorporating bridged macrocycles and methods of producing and using same” (Southwestern Oklahoma State University, priority 2015, dated 2024)

How the values were obtained:
[1] = test system: L. donovani promastigotes; experiment: Antileishmanial Alamar Blue assay on promastigotes; type: cell-based, Leishmania donovani; details: for X more potent than Pentamidine: L. donovani, ratio of molar IC50 to Pentamidine; for L. donovani IC50 / IC50: promastigotes, 48 hours, Alamar Blue; for IC50: read-out: L. donavani IC50
Procedure, shortened: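 Alamar Blue fluorescence (544/590 nm) quantified growth after 48 hours at 26° C of compound-treated promastigotes. Parasites were seeded at 5×10^5/mL in RPMI 1640 plus 10% FCS; drug range 50-3.1 μg/mL, and IC50 derived by plotting percent growth against test concentration.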

[2] = test system: Plasmodium falciparum D6 clone (Sierra Leon, chloroquine-sensitive); experiment: In vitro antimalarial assay, chloroquine-sensitive D6 clone; type: cell-based; details: D6 clone; for IC50: converted with molecular weight, read-out: P. falciparum D6 IC50; for X more potent than chloroquine: molar IC50 ratio versus chloroquine
Experimental: (§1) The compounds were assayed for in vitro antimalarial activity against the W2 clone and D6 clone of the pathogenic Plasmodium falciparum. The strains of P. falciparum were obtained from the Division of Experimental Therapeutics, Walter Reed Army Institute of Research, Washington D.C. Strains of Sierra Leon D6 and Indochina W2 are chloroquine-sensitive and chloroquine-resistant, respectively. The parasite was grown in type A human RBCs and, two strains subcultured daily with fresh medium and blood cells. On the day of the assay, a suspension of infected blood cells (2% parasitemia and 2% hematocrit) was prepared using type A human red blood cells. Assays were performed by standard 96-well flat-bottomed microplate methods and done in duplicate at different concentrations. IC50 values were obtained from the dose curves. Artemisinin and chloroquine were included in each assay as the drug controls, and DMSO was used as vehicle control. The whole protocol was developed based on the published method of Makler. The cytotoxicity assays were also performed in parallel against the Vero cells, and the selectivity index was measured. A selectivity index of >9 was considered to indicate a lead for further development of antimalarial drug.

[3] = test system: Plasmodium falciparum W2 clone (Indochina, chloroquine-resistant); experiment: In vitro antimalarial assay, chloroquine-resistant W2 clone; type: cell-based; details: W2 clone; for IC50: converted with molecular weight, read-out: P. falciparum W2 IC50; for X more potent than chloroquine: molar IC50 ratio versus chloroquine
Experimental: as §1

[4] = test system: S. mansoni newly transformed schistosomula (NTS); experiment: In vitro testing on Schistosoma mansoni newly transformed schistosomula (NTS), viability score; type: cell-based; details: 72 h
Experimental: Assays were prepared according to the laboratory SOP for the lab of Dr. Jennifer Keiser (Swiss Tropical and Public Health Institute, Basel). Harvested S. mansoni cercariae (Liberian strain) obtained from infected Biomphalaria glabrata snails were mechanically transformed into newly transformed schistosomula (NTS) following standard procedures. Briefly, snails were placed under light in the morning to stimulate cercarial shedding. The cercarial suspension was collected, cooled for 30 minutes, and then vigorously pipetted (30×) and vortexed (3 minutes). The suspension was then placed in the incubator (37° C. and 5% CO2) for 30 minutes, and the vortexing and pipetting steps were repeated. The transformation was complete at this point, and the tails were separated from the heads by rinsing three times with cold HBSS. NTS were then incubated overnight in culture medium overnight and used the next day.
The original stock compounds (which were not already dissolved) were dissolved in dimethyl sulfoxide (DMSO) to a concentration of 10 mM. 100 NTS were placed in each well of a 96-well plate with culture medium, and the test compound for a final well volume of 250 μl. […] NTS incubated with no more than 1% DMSO served as control. NTS were kept in an incubator at 37° C. and 5% CO2 for up to 72 hours. After 72 hours, the condition of the NTS was microscopically evaluated using a scale from 3 (normal activity and no tegument alteration) to 0 (dead, completely granulated).

[5] = test system: Cryptococcus neoformans ATCC 90113; experiment: Antimicrobial microdilution assay against Cryptococcus neoformans (modified CLSI/NCCLS, optical density); type: cell-based; details: for X more potent than Amphotericin B: C. neoformans, ratio of molar IC50 to Amphotericin B; for C. neoformans IC50 / IC50: in vitro, C. neoformans ATCC 90113; for IC50: read-out: C. neoformans IC50 (mol/L)
Procedure, shortened: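 Fungicidal endpoint taken by subculturing 5 μL from each clear well onto agar, MFC being the lowest concentration with no regrowth. Duplicate wells of serially diluted compound (20% DMSO/saline) in RPMI pH 6.0, read at 630 nm pre- and post-incubation, under modified CLSI methods. IC50 means 50% growth inhibition against controls.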

[6] = test system: Staphylococcus aureus ATCC 29213; experiment: Antibacterial broth dilution assay against S. aureus (modified CLSI); type: cell-based
Procedure, shortened: (§2)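 Growth read by optical density at 530 nm, duplicate wells, 1% final DMSO. Staphylococcus spp.: Mueller-Hinton pH 7.3, 5.0×10^5 CFU/ml, 35 °C for 16-20 h; Candida spp.: RPMI/dextrose/glutamine/MOPS pH 6.0, 1.5×10^3 CFU/ml, 35 °C for 46-50 h. Reported values are 50% inhibition versus controls, no-growth MIC, and killing MFC/MBC.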

[7] = test system: C. glabrata ATCC 90030; experiment: Antifungal broth dilution assay against C. glabrata (modified CLSI); type: cell-based, Candida glabrata; details: for C. glabrata IC50 / IC50: in vitro; for IC50: converted with molecular weight; for X more potent than Amphotericin B: molar IC50 ratio versus amphotericin B
Procedure, shortened: as §2

| Compound | X more potent than Pentamidine [1] | L. donovani IC50 [1] [µg/mL] | IC50 [1] [nM] | P. falciparum D6 IC50 [2] [µg/mL] | IC50 [2] [nM] | X more potent than chloroquine [2] | P. falciparum W2 IC50 [3] [µg/mL] | IC50 [3] [nM] | X more potent than chloroquine [3] | Effect at 72 h (%) ([4]; NTS S. mansoni at 10 μM) | Effect at 72 h (%) ([4]; NTS S. mansoni, 33 μM) | X more potent than Amphotericin B [5] | C. neoformans IC50 [5] [µg/mL] | IC50 [5] [nM] | S. aureus IC50 ([6]; in vitro) [µg/mL] | IC50 ([6]; in vitro, converted with molecular weight) [nM] | X more potent than ciprofloxacen ([6]; molar IC50 ratio versus ciprofloxacen) | C. glabrata IC50 [7] [µg/mL] | IC50 [7] [nM] | X more potent than Amphotericin B [7] |
| --- | --- | --- | --- | --- | --- | --- | --- | --- | --- | --- | --- | --- | --- | --- | --- | --- | --- | --- | --- | --- |
| CC(=O)[O-].F[P-](F)(F)(F)(F)F.[Cu+2].c1ccc(CN2CCCN3CCN(CCCN(Cc4ccccc4)CC3)CC2)cc1 [RM37, [Cu(Bn2Bcyclam)(OAc)]PF6] | 0.58 | 6.17 | 9150 | 0.2855 | 424 | 0.09 | 0.5451 | 809 | 0.84 | 24.14 | 100.00 |  |  |  |  |  |  |  |  |  |
| CC(=O)[O-].F[P-](F)(F)(F)(F)F.[Cu+2].c1ccc(CN2CCN3CCN(CC2)CCN(Cc2ccccc2)CC3)cc1 [RM58] |  |  |  | 0.0947 | 147 | 0.25 | 0.2015 | 312 | 2.18 |  | 5.41 |  |  |  |  |  |  |  |  |  |
| CC(=O)[O-].CC(=O)[O-].CN1CCCN2CCN(CCCN(Cc3ccc(CN4CCCN5CCN(C)CCCN(CC5)CC4)cc3)CC2)CC1.F[P-](F)(F)(F)(F)F.F[P-](F)(F)(F)(F)F.[Ni+2].[Ni+2] [KS33, [Ni2(p-CB-cyclams)(OAc)2](PF6)2] |  |  |  |  |  |  |  |  |  |  | 0.00 | 0.26 | 1.020 | 920 | 8.490 | 7660 | 0.04 |  |  |  |
| [Mn(Bn1Me1-CB-Cyclam)Cl2] [NS11] |  |  |  | 0.6142 | 1350 | 0.03 | 0.5300 | 1160 | 0.58 |  | 5.41 | 0.02 | 5.038 | 11000 |  |  |  |  |  |  |
| c1ccc(CN2CCN3CCN(CC2)CCN(Cc2ccccc2)CC3)cc1 [ANC14, Bn2Bcyclen] | 0.53 | 3.80 | 10000 | 0.5110 | 1350 | 0.03 | 0.7602 | 2010 | 0.34 |  | 43.24 |  |  |  |  |  |  |  |  |  |
| CC(=O)[O-].CC(=O)[O-].CN(C)C=O.F[P-](F)(F)(F)(F)F.F[P-](F)(F)(F)(F)F.[Co+2].[Co+2].c1cc(CN2CCNCCN3CCN(CC3)CC2)ccc1CN1CCNCCN2CCN(CC2)CC1 [OB30, [Co2(p-SB-Cyclens)(OAc)2][PF6]2•DMF] |  |  |  |  |  |  |  |  |  |  | 5.41 | 0.33 | ≤ 0.800 | 729 |  |  |  | 0.800 | 729 | 1.95 |
| CC(=O)[O-].CC(=O)[O-].CC(=O)[O-].F[P-](F)(F)(F)(F)F.F[P-](F)(F)(F)(F)F.F[P-](F)(F)(F)(F)F.O.[Ni+2].[Ni+2].[Ni+2].c1c(CN2CCNCCN3CCN(CC3)CC2)cc(CN2CCNCCN3CCN(CC3)CC2)cc1CN1CCNCCN2CCN(CC2)CC1 [CDG030, [Ni3(tris-SB-Cyclens)0Ac)3][PF6]3•H2O] |  |  |  |  |  |  |  |  |  |  | 18.02 | 0.45 | ≤ 0.800 | 528 |  |  |  | 4.170 | 2750 | 0.52 |
| CC(=O)[O-].F[P-](F)(F)(F)(F)F.[Zn+2].c1ccc(CN2CCCN3CCN(CCCN(Cc4ccccc4)CC3)CC2)cc1 [RM41, [Zn(Bn2Bcyclam)(OAc)]PF6] | 0.38 | 9.51 |  | 0.2315 |  | 0.11 | 0.4010 |  | 1.14 | 17.24 | 100.00 |  |  |  |  |  |  |  |  |  |
| CC(=O)[O-].CN1CCCN2CCN(CCCN(Cc3ccccc3)CC2)CC1.F[P-](F)(F)(F)(F)F.[Cu+2] [RM56A, [Cu(Bn1Me1Bcyclam)(OAc)]PF6] | 0.10 | 33.32 | 55700 | 0.7145 | 1200 | 0.03 | 0.6747 | 1130 | 0.60 |  | 18.02 |  |  |  |  |  |  |  |  |  |
| [Cl-].[Cl-].[Fe+2].c1ccc(CN2CCCN3CCN(CCCN(Cc4ccccc4)CC3)CC2)cc1 [NS08, Fe(Bn2Bcyclam)Cl2] | 1.66 | 1.71 | 3210 | 0.1726 | 324 | 0.11 | 0.2271 | 426 | 1.59 | 51.72 | 18.02 |  |  |  |  |  |  |  |  |  |
| [Cu3(tris-SB-Cyclams)(OAc)3][PF6]3•1.5NH4PF6 [CDG027] |  |  |  |  |  |  |  |  |  |  | 11.71 | 0.34 | 1.280 | 696 |  |  |  | 1.630 | 886 | 1.60 |
